Values quoted from earlier work in PMC12281572.
Several values for one entry are separate records, joined by “and”; a condition that tells them apart may be missing. Equal values may be shown once.

Assay: FTIR, 4-fluorophenol as donor (the pK_BHX database, per the paper)
Conditions: CCl4; 25 C

SMILES	pK_BHX (log10 Kf of the 1:1 H-bond complex with 4-fluorophenol, by FTIR)
CN1CCCCC1	2.11 log units
CCC(C)(C)N=CN(C)C	2.26 log units
CCOC(=O)C(C)C	1.09 log units
CN(C)C=NC(=S)N(C)C	1.79 log units
CC(=O)c1cccc(C)c1	1.1 log units
CN1CCCCCC1=O	2.53 log units
CC12CCC(CC1=S)C2(C)C (stereo not shown)	0.34 log units
COC(=O)c1ccccc1	0.89 log units
O=[N+]([O-])c1ccc(C23CC4CC(CC(C4)C2)C3)cc1	0.42 log units
O=C(C12CC3CC(CC(C3)C1)C2)C12CC3CC(CC(C3)C1)C2	1.17 log units
ClC1CCCCC1	-0.27 log units
NCc1cccc(F)c1	1.58 log units
O=c1cccccc1	1.97 log units
c1cc(N2CCCC2)ccn1	2.93 log units
CCCCSCCCC	0.23 log units
Cc1ccc(S(=O)c2ccc(C)cc2)cc1	2.21 log units
c1ncn(C2CCCCC2)c1C1CCCCC1	3.12 log units
CCOC(=O)C(C)(C)C	1.04 log units
CN(C)C=Nc1ccccc1Br	1.37 log units
CC(=O)c1cccnc1	1.39 log units and 0.9 log units
c1ncncn1	0.32 log units
CN(C)C=NCc1cccc(Cl)c1	2.1 log units
CS(C)=O	2.54 log units
C1=COCCC1	0.41 log units
OC(C(F)(F)F)C(F)(F)F	-0.96 log units

SMILES	pK_BHX (log10 Kf of the 1:1 H-bond complex with 4-fluorophenol, by FTIR)
CN(C)C(=O)C(F)(F)F	1.04 log units
CCOC(=O)C=CN(C)C	2.09 log units
CC(C)(C)c1ccccn1	1.42 log units
OC12CC3CC(CC(C3)C1)C2	1.27 log units
CN=C(c1ccccc1)N(C)C	2.62 log units
CCCCCCCCO	1.04 log units
Fc1cccc(C2CCCN2)c1 (stereo not shown)	1.65 log units
C1CCCNCC1	2.24 log units
CC(C)C(=O)N(C1CCCCC1)C1CCCCC1	2.24 log units
CN(C)C=NN(C)C	2.43 log units
c1ccc2nc3ccccc3nc2c1	1.22 log units
CN=Cc1ccccc1	1.49 log units
Cc1c(C)c(C)c(C)c(C)c1C	0.02 log units
CCCC(=O)c1ccccc1	1.04 log units
C=CCN=CN(C)C	2.48 log units
N#Cc1ccc(F)cc1	0.72 log units
CN(C)C=NC1CCCCC1	2.59 log units
c1ccc2c(c1)OCCO2	-0.23 log units
N#Cc1cccc(C(F)(F)F)c1	0.53 log units
CC(C)OC(C)C	1.11 log units
COc1ccc(N=C(c2ccccc2)N(C)c2ccccc2)cc1	1.53 log units
CCN(C(C)C)C(C)C	1.05 log units
CCCN	2.2 log units
CN1CCN(C)C1=O	2.46 log units
Cc1cnc2c(ccc3c(C)c(C)cnc32)c1C	3.46 log units

SMILES	pK_BHX (log10 Kf of the 1:1 H-bond complex with 4-fluorophenol, by FTIR)
O=C1CCCCCCCCCCC1	1.23 log units
Clc1cccnc1	1.31 log units
CCCCCCCCCCCCCCCCN	2.26 log units
C#CCCCC	-0.22 log units
CC(=O)c1ccc(N2CCOCC2)cc1	1.61 log units
c1ccc2c(c1)Cc1ccccc1-2	-0.38 log units
N#CC1CCCC1	0.88 log units
CN(C)C(=O)C12CC3CC(CC(C3)C1)C2	2.3 log units
CCN(CC)C(=O)SC	1.56 log units
CN1CN(C)C1=O	2.46 log units
CN(C)C(=S)N(C)C	1.35 log units
CN(C)C=NC(=S)c1ccccc1	1.23 log units
CCO	1.02 log units
CC(C)(C)OC(=O)c1ccccc1	0.97 log units
CSC1CCCCC1	0.24 log units
c1ccc(Nc2ccccc2)cc1	-0.3 log units
CNC=O	1.96 log units
O=[N+]([O-])C=CN1CCCCC1	1.55 log units
CN1C2CCCC1CC2	2.39 log units
COc1ccccc1C(C)=O	1.34 log units
C#CCNC	1.64 log units
CCOC(=O)C(F)(F)F	0.08 log units
CN(C)C=Nc1ccc(C#N)cc1	1.32 log units and 1.23 log units
CN(C)S(C)(=O)=O	1.0 log units
C#CCN=CN(C)C	2.3 log units

SMILES	pK_BHX (log10 Kf of the 1:1 H-bond complex with 4-fluorophenol, by FTIR)
CCN(CC)c1ccc(N=O)cc1	1.33 log units
CC(=O)c1ccccc1Cl	0.9 log units
CC(C)C(=O)C(C)C	1.08 log units
C=CCNCC=C	1.7 log units
CCN(CC)CC(F)(F)F	0.23 log units
O=C1CCCCCCC1	1.45 log units
Clc1ccncc1	1.54 log units
COC(OC)OC	0.55 log units
CN(C)C=NCc1cc(Cl)cc(Cl)c1	2.0 log units
OC1CCCCC1	1.14 log units
Cc1ccc(C#N)cc1	0.88 log units
CN(C)C(=O)c1ccc(F)cc1	2.14 log units
CN1C(=O)CCC1=O	1.06 log units
[O-][n+]1ccccc1	2.72 log units
NCCCCCCN	2.21 log units
O=C1CCCCCCCCCCCCCC1	1.22 log units
CC(=NC#N)N(C)C	2.24 log units
CS(=O)c1ccccc1 (stereo not shown)	2.24 log units
CCOC(=O)c1ccc(N(C)C)cc1	1.45 log units
c1ccc(C2=NCCC2)cc1	1.98 log units
Brc1cccnc1	1.31 log units
CN(C)c1ccc(Br)cc1	0.17 log units
CN(C)c1ccc(C(=O)c2ccccc2)cc1	1.67 log units
CC(=Nc1ccccc1)N(C)c1ccc(C)cc1	1.76 log units
CN1CN(C)CN(C)C1	1.58 log units
